Reference: patent US8323674B2, “Synergistic biocide composition comprising 2-methylisothiazoline-3-one” (Thor GmbH, priority 2000, dated 2012)

Legend:
Format in all cases: cell-based
[1] = tested on: Pseudomonas aeruginosa; assay: MIC and synergistic index of MIT + BBIT in Müller-Hinton broth, 72 h/25° C.; details: for Synergistic index Qa/QA + Qb/QB: BBIT MIC of 500 ppm used as basis; for MIC value: only one biocide employed
Description: (§1) The synergistic index is calculated by the method of F. C. Kull et al., Applied Microbiology, vol. 9 (1961), p. 538. Here, the synergistic index is calculated using the following formula: Synergistic index SI=Qa/QA+Qb/QB.
(§2) If the synergistic index has a value of above 1, this means that antagonism is present. If the synergistic index assumes a value of 1, this means that an additive effect of the two biocides exists. If the synergistic index assumes a value of less than 1, this means that synergism of the two biocides exists.
(§3) Again, the experimental batches contained a Müller-Hinton broth as the nutrient medium. The cell density was 10^6 cells/ml. The incubation time was 72 hours at 25° C. Each sample was incubated in a shaker-incubator at 120 rpm.

[2] = tested on: Pseudomonas aeruginosa; assay: MIC and synergistic index of MIT + BNP in Müller-Hinton broth, 72 h/25° C.; details: for MIC: Pseudomonas aeruginosa
Description: as §1, §2, §3

[3] = tested on: Pseudomonas aeruginosa; assay: MIC and synergistic index of MIT + HCHO in Müller-Hinton broth, 96 h/25° C.; details: for MIC: Pseudomonas aeruginosa; for Synergistic index Qa/QA + Qb/QB: method of Kull
Description: In addition to the biocide component and water, the aqueous mixtures also comprised a nutrient medium, viz. a commercially available Müller-Hinton broth. The cell density was 10^6 cells/ml. The incubation time was 96 hours at 25° C. Each sample was incubated in a shaker-incubator at 120 rpm.
as §1, §2

[4] = tested on: Pseudomonas aeruginosa; assay: MIC and synergistic index of MIT + PMG in Müller-Hinton broth, 48 h/25° C.; details: for MIC value: only one biocide employed
Description: as §1, §2
Again, the experimental batches contained a Müller-Hinton broth as the nutrient medium. The cell density was 10^6 cells/ml. The incubation time was 48 hours at 25° C. Each sample was incubated in a shaker-incubator at 120 rpm.

[5] = tested on: Pseudomonas aeruginosa; assay: MIC and synergistic index of MIT + OPP in Müller-Hinton broth, 72 h/25° C.; details: for MIC: Pseudomonas aeruginosa, 72 h
Description: as §1, §2, §3

[6] = tested on: Pseudomonas aeruginosa; assay: MIC and synergistic index of MIT + ZnPy in Müller-Hinton broth, 72 h/25° C.; details: for MIC value: only one biocide employed
Description: as §1, §2, §3

[7] = tested on: Pseudomonas aeruginosa; assay: MIC and synergistic index of MIT + NaPy in Müller-Hinton broth, 96 h/25° C.; details: for MIC value: only one biocide employed
Description: as §1, §2
Again, the experimental batches contained a Müller-Hinton broth as the nutrient medium. The cell density was 10^6 cells/ml. The incubation time was 96 hours at 25° C. Each sample was incubated in a shaker-incubator at 120 rpm.

[8] = tested on: Pseudomonas aeruginosa; assay: MIC and synergistic index of MIT + HMBIT in Müller-Hinton broth, 48 h/30° C.; details: for MIC value: biocide used alone, 48 hours at 30° C.
Description: as §1, §2
Again, the experimental batches contained a Müller-Hinton broth as nutrient medium. The cell density was 10^6 microorganisms/ml. […] Each sample was incubated in a shaker-incubator at 120 rpm.

[9] = tested on: Pseudomonas aeruginosa; assay: MIC and synergistic index of MIT + BAC in Müller-Hinton broth, 48 h/25° C.; details: for MIC value: biocide used alone
Description: as §1, §2
Again, the experimental batches contained a Müller-Hinton broth as nutrient medium. The cell density was 10^6 microorganisms/ml. The incubation time was 48 hours at 25° C. Each sample was incubated in a shaker-incubator at 120 rpm.

[10] = Pseudomonas aeruginosa, incubation 48 h/25° C.

CCCCn1sc2ccccc2c1=O [BBIT, N-butyl-1,2-benzoisothiazolin-3-one]
MIC at Total concentration MIT + BBIT Qa + Qb [1]: 500 ppm
Synergistic index Qa/QA + Qb/QB [1]: 1.00
Qb/QB ([1]; QB = 500 ppm used as basis): 1.00
MIC at BBIT concentration Qb ([1]; for BBIT alone 500 ppm used as the basis for the calculation): 500 ppm
MIC value [1]: over 500 ppm

O=[N+]([O-])C(Br)(CO)CO [BNP, 2-bromo-2-nitro-1,3-propanediol]
Qb/QB [2]: 1.00
Synergistic index Qa/QA + Qb/QB [2]: 1.00
MIC ([2]; only one biocide employed, read-out: MIC value): 20 µg/mL
MIC ([2]; read-out: MIC at BNP concentration Qb): 20 µg/mL
MIC ([2]; read-out: MIC at Total concentration of MIT + BNP Qa + Qb): 20 µg/mL

C=O [HCHO, formaldehyde]
Qb/QB [3]: 1.00
MIC ([3]; only one biocide used, read-out: MIC value): 100 µg/mL
MIC ([3]; read-out: MIC at HCHO concentration Qb): 100 µg/mL
MIC ([3]; read-out: MIC at Total concentration of MIT + HCHO Qa + Qb): 100 µg/mL
Synergistic index Qa/QA + Qb/QB [3]: 1.00

Cn1sccc1=O [MIT, 2-methylisothiazolin-3-one]
MIC at MIT concentration Qa [3]: 60 ppm
MIC at Total concentration of MIT + HCHO Qa + Qb [3]: 60 ppm
Qa/QA [3]: 1.00
Synergistic index Qa/QA + Qb/QB [3]: 1.00
MIC value ([3]; only one biocide used): 60 ppm
MIC at MIT concentration Qa [2]: 40 ppm
MIC at Total concentration of MIT + BNP Qa + Qb [2]: 40 ppm
Qa/QA [2]: 1.00
Synergistic index Qa/QA + Qb/QB [2]: 1.00
MIC value ([2]; only one biocide employed): 40 ppm
MIC at MIT concentration Qa [4]: 40 ppm
MIC at Total concentration MIT + PMG Qa + Qb [4]: 40 ppm
Qa/QA [4]: 1.00
Synergistic index Qa/QA + Qb/QB [4]: 1.00
MIC value [4]: 40 ppm
MIC at MIT concentration Qa ([5]; 72 h/25° C.): 40 ppm
MIC at Total concentration MIT + OPP Qa + Qb ([5]; 72 h/25° C.): 40 ppm
Qa/QA ([5]; 72 h/25° C.): 1.00
Synergistic index Qa/QA + Qb/QB ([5]; 72 h/25° C.): 1.00
MIC value ([5]; only one biocide employed, 72 h/25° C.): 40 ppm
Synergistic index Qa/QA + Qb/QB [6]: 1.00
MIC at MIT concentration Qa ([6]; 72 h/25° C.): 40 ppm
MIC at Total concentration MIT + ZnPy Qa + Qb ([6]; 72 h/25° C.): 40 ppm
Qa/QA ([6]; 72 h/25° C.): 1.00
MIC value ([6]; 72 h/25° C.): 40 ppm
MIC at MIT concentration Qa [7]: 60 ppm
MIC at Total concentration MIT + NaPy Qa + Qb [7]: 60 ppm
Qa/QA [7]: 1.00
Synergistic index Qa/QA + Qb/QB [7]: 1.00
MIC value [7]: 60 ppm
MIC at MIT concentration Qa [1]: 40 ppm
MIC at Total concentration MIT + BBIT Qa + Qb [1]: 40 ppm
Qa/QA [1]: 1.00
Synergistic index Qa/QA + Qb/QB [1]: 1.00
MIC value [1]: 40 ppm
MIC at MIT concentration Qa [8]: 50 ppm
MIC at Total concentration MIT + HMBIT Qa + Qb [8]: 50 ppm
Qa/QA [8]: 1.00
Synergistic index Qa/QA + Qb/QB [8]: 1.00
MIC value [8]: 50 ppm
Qa/QA ([9]; MIT concentration in mixture at MIC / MIC of MIT alone (40 ppm), 48 h/25° C.): 1.00
MIC at MIT concentration Qa ([9]; MIT share of the MIC of the MIT + BAC mixture, Pseudomonas aeruginosa, incubation 48 h/25° C.): 40 ppm
MIC at Total concentration MIT + BAC Qa + Qb [9, 10]: 40 ppm
Synergistic index Qa/QA + Qb/QB [9, 10]: 1.00
MIC value ([9]; 48 h/25° C.): 40 ppm

[Na+].[O-][n+]1ccccc1[S-] [NaPy, sodium pyrithione]
MIC at NaPy concentration Qb [7]: 200 ppm
MIC at Total concentration MIT + NaPy Qa + Qb [7]: 200 ppm
Qb/QB [7]: 1.00
Synergistic index Qa/QA + Qb/QB [7]: 1.00
MIC value [7]: 200 ppm

Oc1ccccc1-c1ccccc1 [OPP, o-phenylphenol]
Qb/QB ([5]; 72 h/25° C.): 1.00
Synergistic index Qa/QA + Qb/QB ([5]; 72 h/25° C.): 1.00
MIC ([5]; read-out: MIC at OPP concentration Qb): 750 µg/mL
MIC ([5]; read-out: MIC at Total concentration MIT + OPP Qa + Qb): 750 µg/mL
MIC ([5]; read-out: MIC value): 750 µg/mL

N-hydroxymethyl-1,2-benzoisothiazolin-3-one [HMBIT]
MIC at HMBIT concentration Qb [8]: 150 ppm
MIC at Total concentration MIT + HMBIT Qa + Qb [8]: 150 ppm
Qb/QB [8]: 1.00
Synergistic index Qa/QA + Qb/QB [8]: 1.00
MIC value [8]: 150 ppm

dimethylbenzylalkonium chloride [BAC]
Qb/QB ([9]; BAC concentration in mixture at MIC / MIC of BAC alone (80 ppm), 48 h/25° C.): 1.00
MIC at BAC concentration Qb ([9]; BAC share of the MIC of the MIT + BAC mixture, Pseudomonas aeruginosa, incubation 48 h/25° C.): 80 ppm
MIC at Total concentration MIT + BAC Qa + Qb [9, 10]: 80 ppm
Synergistic index Qa/QA + Qb/QB [9, 10]: 1.00
MIC value ([9]; 48 h/25° C.): 80 ppm

polyhexamethylenebiguanide [PMG]
MIC at PMG concentration Qb [4]: 30 ppm
MIC at Total concentration MIT + PMG Qa + Qb [4]: 30 ppm
Qb/QB [4]: 1.00
Synergistic index Qa/QA + Qb/QB [4]: 1.00
MIC value [4]: 30 ppm

zinc pyrithione [ZnPy]
MIC at Total concentration MIT + ZnPy Qa + Qb ([6]; 72 h/25° C.): 100 ppm
Qb/QB ([6]; 72 h/25° C., QB = 100 ppm used as basis): 1.00
Synergistic index Qa/QA + Qb/QB ([6]; 72 h/25° C., ZnPy MIC of 100 ppm used as basis): 1.00
MIC at ZnPy concentration Qb ([6]; 72 h/25° C., for ZnPy alone 100 ppm used as the basis for the calculation): 100 ppm
MIC value ([6]; 72 h/25° C.): over 100 ppm
